One data set concerns MIA PaCa-2. The data set is described as follows: In vitro cytotoxic activity against PACA-2 (human pancreatic carcinoma) cell line. The data set is classed as functional. The following applies: read-out: ED50 (the source's name).
A short description of data set [1]: Activity in brine shrimp lethality test (BST). The class given is organism-based. The following applies: artemia, in vivo.
A further data set relates to A549. The data set is described as follows: In vitro cytotoxic activity against A-549 (human lung carcinoma) cell line. The following applies: read-out: ED50 (the source's name). The data set is classed as functional.
In another data set the test system is A498. As to the kind of experiment: In vitro cytotoxic activity against A-498 (human kidney carcinoma) cell line. The class given is functional. The following applies: read-out: ED50 (the source's name).
For the next data set, the system named is HT-29. The data set is described as follows: In vitro cytotoxic activity against HT-29 (human colon adenocarcinoma) cell line. The data set is classed as functional. The following applies: read-out: ED50 (the source's name).
The next data set concerns MCF7. The data set is described as follows: In vitro cytotoxic activity against MCF-7 (human breast carcinoma) cell line. The class given is functional. The following applies: read-out: ED50 (the source's name).
The test system of the next data set is PC-3. The data set is described as follows: In vitro cytotoxic activity against PC-3 (human prostate adenocarcinoma) cell line. The data set is classed as functional. The following applies: read-out: ED50 (the source's name).

Each structure is given as a SMILES string. ≈ marks a conversion by molar mass, not a printed value.

As for `CC1=C(CCO)C(C)(C)C[C@@H](O)C1=O`, the EC50 is above 100000 ng/mL in the data set on MIA PaCa-2; 47000 ng/mL (≈ 237 µM) in the data set on A549; above 100000 ng/mL in the data set on A498; 52000 ng/mL (≈ 262 µM) in the data set with HT-29; 46000 ng/mL (≈ 232 µM) in the data set on MCF7; above 100000 ng/mL with PC-3. Moreover, the LC50 (usually the concentration that kills 50% of the test population) in data set [1] is 4900 ng/mL (≈ 24.7 µM).

`COc1cccc2c1C(=O)c1c(O)c3c(c(O)c1C2=O)C[C@@](O)(C(=O)CO)C[C@@H]3O[C@H]1C[C@H](N)[C@H](O)[C@H](C)O1` [DOXORUBICIN]: the EC50 in the data set with MIA PaCa-2 is 0.18 ng/mL (≈ 0.000331 µM); in the data set with A549, 0.21 ng/mL (≈ 0.000386 µM); in the data set on A498, 0.46 ng/mL (≈ 0.000846 µM); in the data set on HT-29 it was 1.3 ng/mL (≈ 0.00239 µM); in the data set with MCF7 it was 5.8 ng/mL (≈ 0.0107 µM); in the data set on PC-3, 0.24 ng/mL (≈ 0.000442 µM).

(Values after ChEMBL document CHEMBL1133977, “Robinlin: a novel bioactive homo-monoterpene from Robinia pseudoacacia L. (Fabaceae)” (Bioorg Med Chem Lett, 2001).)
